One assay has as its target IDH1 R132H (Homo sapiens, UniProt O75874, R132H). Kind of assay: Assay for IDH1 R132H inhibitors (NADPH/aKG, resazurin detection). The note with it: enzyme assay of Example 12; read-out: IDH1R132H IC50. Type of assay: biochemical. A digest of the protocol:
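Compound added to substrate mix (8 uM NADPH, 2 mM aKG), then enzyme mix (0.2 μg/ml IDH1 R132H); 50 min RT in 20 mM Tris pH 7.5, 150 mM NaCl, 10 mM MgCl2, 0.03% BSA. Resazurin detection mix (30 μM) 5 min RT; resorufin fluorescence Ex544/Em590.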

In a further assay the test system is U87MG cells. The experiment in a line: Cellular assay for IDH1m inhibitors: inhibition of 2-HG production (LC-MS, 48 hours) in U87MG cells. The note with it: Homo sapiens, U-87 MG, inhibition of 2-HG production, U87R132H cells; read-out: U87R132H IC50. Type of assay: cell-based. A digest of the protocol:
(§1)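 5000 cells/well, DMEM + 10% FBS, overnight 37 °C/5% CO2; compound added (0.2% DMSO final), 48 h; medium sampled for LC-MS 2-HG; IC50 vs DMSO control.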

Another assay has as its system HT1080 cells. Kind of assay: Cellular assay for IDH1m inhibitors: inhibition of 2-HG production (LC-MS, 48 hours) in HT1080 cells. Type of assay: cell-based. To be noted: Homo sapiens, HT-1080; inhibition of 2-HG production, HT1080 cells; read-out: HT1080 IC50. An outline of the steps:
as §1

Each structure is given as a SMILES string.

As usually defined, the IC50 is the concentration that inhibits the measured activity by half.

Sequence of IDH1 R132H (O75874 whole entry R132H): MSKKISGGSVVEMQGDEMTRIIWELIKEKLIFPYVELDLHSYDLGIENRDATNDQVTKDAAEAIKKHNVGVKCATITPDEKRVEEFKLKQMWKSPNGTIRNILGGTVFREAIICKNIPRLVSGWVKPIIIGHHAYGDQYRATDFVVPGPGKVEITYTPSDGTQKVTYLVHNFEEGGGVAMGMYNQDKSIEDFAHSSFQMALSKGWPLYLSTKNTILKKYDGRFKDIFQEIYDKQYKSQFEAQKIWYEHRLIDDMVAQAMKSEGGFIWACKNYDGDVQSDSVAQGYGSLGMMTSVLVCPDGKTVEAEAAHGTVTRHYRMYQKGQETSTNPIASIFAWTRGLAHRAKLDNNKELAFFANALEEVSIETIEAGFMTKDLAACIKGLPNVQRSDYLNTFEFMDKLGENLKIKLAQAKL

Take `C=Cc1cc(-c2cc(C#N)c(N3CCN(C(=O)C4CC4)[C@H](C4CC4)C3)nc2C2CC2)ccn1` [Compound 485, (R)-6-(4-(cyclopropanecarbonyl)-3-cyclopropylpiperazin-1-yl)-2-cyclopropyl-2′-vinyl-3,4′-bipyridine-5-carbonitrile]: the IC50 at IDH1 R132H, in the assay with U87MG cells and in the assay with HT1080 cells was below 500 nM each time.
Turning to `COCCC(=O)N1CCN(c2nc(C3CC3)c(-c3cccc4cnccc34)c(C)c2C#N)C[C@H]1C` [Compound 410, 6-cyclopropyl-5-(isoquinolin-5-yl)-2-((R)-4-(3-methoxypropanoyl)-3-methylpiperazin-1-yl)-4-methylnicotinonitrile], the IC50 on IDH1 R132H, in the assay with U87MG cells and in the assay on HT1080 cells was below 500 nM each time.
For `COCCC(=O)N1CCN(c2nc(C3CC3)c(-c3ccnc(Cl)c3)cc2C#N)C[C@H]1C` [Compound 401, (R)-2′-chloro-2-cyclopropyl-6-(4-(3-methoxypropanoyl)-3-methylpiperazin-1-yl)-3,4′-bipyridine-5-carbonitrile], the IC50 was in the range of 500 to 1000 nM on IDH1 R132H, 1000 to 10000 nM in the assay with U87MG cells and 1000 to 10000 nM with HT1080 cells.
`C=Cc1cnc2c(-c3c(C4CC4)nc(N4CCN(C(=O)CCOC)[C@H](C(C)C)C4)c(C#N)c3C)cccc2n1` [Compound 765, 6-cyclopropyl-2-((R)-3-isopropyl-4-(3-methoxypropanoyl)piperazin-1-yl)-4-methyl-5-(2-vinylquinoxalin-5-yl)nicotinonitrile]: the 50% inhibitory concentration (IC50) at IDH1 R132H, in the assay with U87MG cells and with HT1080 cells was below 500 nM each time.
As to `COCCC(=O)N1CCN(c2nc(C3CC3)c(-c3cn(C)c(=O)c4ccccc34)cc2C#N)C[C@H]1C` [Compound 418, (R)-6-cyclopropyl-2-[4-(3-methoxy-propionyl)-3-methyl-piperazin-1-yl]-5-(2-methyl-1-oxo-1,2-dihydro-isoquinolin-4-yl)-nicotinonitrile], the IC50 at IDH1 R132H, in the assay on U87MG cells and in the assay with HT1080 cells was below 500 nM throughout.
`COCC(=O)N1CCN(c2nc(C3CC3)c(Nc3ccnc(Cl)c3)cc2C#N)C[C@H]1C1CC1` [Compound 718, (R)-5-((2-chloropyridin-4-yl)amino)-6-cyclopropyl-2-(3-cyclopropyl-4-(2-methoxyacetyl)piperazin-1-yl)nicotinonitrile]: the IC50 on IDH1 R132H is below 500 nM; in the assay on U87MG cells it was below 500 nM; in the assay with HT1080 cells, 500 to 1000 nM.
`C=Cc1cc(-c2cc(C#N)c(N3CCN(C(=O)CCCOC)[C@H](C4CC4)C3)nc2C2CC2)ccn1` [Compound 747, (R)-2-cyclopropyl-6-(3-cyclopropyl-4-(4-methoxybutanoyl)piperazin-1-yl)-2′-vinyl-3,4′-bipyridine-5-carbonitrile]: the IC50 at IDH1 R132H, with U87MG cells and in the assay on HT1080 cells was below 500 nM in each case.
As to `COCCC(=O)N1CCN(c2nc(C3CC3)c(-c3ccc4[nH]ncc4c3)cc2C#N)C[C@H]1C` [Compound 295, (R)-6-cyclopropyl-5-(1H-indazol-5-yl)-2-(4-(3-methoxypropanoyl)-3-methylpiperazin-1-yl)nicotinonitrile], the 50% inhibitory concentration (IC50) on IDH1 R132H is below 500 nM; in the assay with U87MG cells, 500 to 1000 nM; with HT1080 cells it was 500 to 1000 nM.
For the compound `COCCC(=O)N1CCN(c2nc(C3CC3)c(Oc3ccnc(Cl)c3)cc2C#N)C[C@H]1C1CC1` [Compound 695, (R)-5-((2-chloropyridin-4-yl)oxy)-6-cyclopropyl-2-(3-cyclopropyl-4-(3-methoxypropanoyl)piperazin-1-yl)nicotinonitrile], the half-maximal inhibitory concentration (IC50) on IDH1 R132H, with U87MG cells and in the assay on HT1080 cells was below 500 nM each time.
Take `C=Cc1cccc(-c2cc(C#N)c(N3CCN(C(=O)C4CC4)[C@H](C4CC4)C3)nc2C2CC2)n1` [Compound 499, (R)-6′-(4-(cyclopropanecarbonyl)-3-cyclopropylpiperazin-1-yl)-2′-cyclopropyl-6-vinyl-2,3′-bipyridine-5′-carbonitrile]: the 50% inhibitory concentration (IC50) at IDH1 R132H is 500 to 1000 nM; in the assay with U87MG cells, 1000 to 10000 nM; in the assay on HT1080 cells, 1000 to 10000 nM.
Consider `C=CC(=O)N1CC=C(c2cc(C#N)c(N3CCN(C(=O)C4CC4)[C@H](C)C3)nc2C2CC2)C1` [Compound 612, (R)-5-(1-acryloyl-2,5-dihydro-1H-pyrrol-3-yl)-2-(4-(cyclopropanecarbonyl)-3-methylpiperazin-1-yl)-6-cyclopropylnicotinonitrile], for which the IC50 on IDH1 R132H, with U87MG cells and in the assay with HT1080 cells was below 500 nM each time.
`COCCC(=O)N1CCN(c2nc(C3CC3)c(-c3ccc4c(c3)CC(=O)N4)cc2C#N)C[C@H]1C` [Compound 384, (R)-6-cyclopropyl-2-(4-(3-methoxypropanoyl)-3-methylpiperazin-1-yl)-5-(2-oxoindolin-5-yl)nicotinonitrile]: the IC50 was below 500 nM at IDH1 R132H, 500 to 1000 nM in the assay with U87MG cells and 500 to 1000 nM in the assay with HT1080 cells.
In the case of `C=Cc1cc(Nc2cc(C#N)c(N3CCN(C(=O)C[C@H]4CCO4)[C@H](C4CC4)C3)nc2C2CC2)ccn1` [Compound 751, 6-cyclopropyl-2-((R)-3-cyclopropyl-4-(2-((R)-oxetan-2-yl)acetyl)piperazin-1-yl)-5-(2-vinylpyridin-4-ylamino)nicotinonitrile], the IC50 at IDH1 R132H, in the assay on U87MG cells and in the assay on HT1080 cells was below 500 nM in each case.
As to `C=Cc1cc(Nc2cc(C#N)c(N3CCN(C(=O)CCO)[C@H](C)C3)nc2C2CC2)ccn1` [Compound 581, (R)-6-cyclopropyl-2-(4-(3-hydroxypropanoyl)-3-methylpiperazin-1-yl)-5-((2-vinylpyridin-4-yl)amino)nicotinonitrile], the IC50 at IDH1 R132H, in the assay on U87MG cells and with HT1080 cells was below 500 nM throughout.
In the case of `COCCC(=O)N1CCN(c2nc(C3CC3)c(-c3cccc4[nH]ncc34)cc2C#N)C[C@H]1C` [Compound 438, (R)-6-cyclopropyl-5-(1H-indazol-4-yl)-2-[4-(3-methoxy-propionyl)-3-methyl-piperazin-1-yl]-nicotinonitrile], the half-maximal inhibitory concentration (IC50) on IDH1 R132H is below 500 nM; in the assay on U87MG cells, 500 to 1000 nM; with HT1080 cells, 1000 to 10000 nM.
Regarding `C=Cc1cc(-c2c(C3CC3)nc(N3CCN(C(=O)CCO)[C@H](C4CC4)C3)c(C#N)c2C)cnn1` [Compound 776, (R)-6-cyclopropyl-2-(3-cyclopropyl-4-(3-hydroxypropanoyl)piperazin-1-yl)-4-methyl-5-(6-vinylpyridazin-4-yl)nicotinonitrile], the IC50 on IDH1 R132H, in the assay on U87MG cells and with HT1080 cells was below 500 nM in each case.
For the compound `COCCC(=O)N1CCN(c2nc(C3CC3)c(OCc3cccc(C(=O)OC)c3)cc2C#N)C[C@H]1C` [Compound 292, (R)-methyl 3-((5-cyano-2-cyclopropyl-6-(4-(3-methoxypropanoyl)-3-methylpiperazin-1-yl)pyridin-3-yloxy)methyl)benzoate], the half-maximal inhibitory concentration (IC50) at IDH1 R132H was below 500 nM; with U87MG cells, 1000 to 10000 nM; with HT1080 cells, 500 to 1000 nM.
Take `C=Cc1ccc2c(-c3cc(C#N)c(N4CCN(C(=O)C5CC5)[C@H](C5CC5)C4)nc3C3CC3)cccc2n1` [Compound 475, (R)-2-(4-(cyclopropanecarbonyl)-3-cyclopropylpiperazin-1-yl)-6-cyclopropyl-5-(2-vinylquinolin-5-yl)nicotinonitrile]: the values for the half-inhibitory concentration (IC50) on IDH1 R132H, in the assay on U87MG cells and in the assay on HT1080 cells were below 500 nM, below 500 nM and 500 to 1000 nM, respectively.
Turning to `C=Cc1cc(-c2cc(C#N)c(N3CCN(C(=O)COCC)[C@H](C)C3)nc2C2CC2)ccn1` [Compound 573, (R)-2-cyclopropyl-6-(4-(2-ethoxyacetyl)-3-methylpiperazin-1-yl)-2′-vinyl-3,4′-bipyridine-5-carbonitrile], the IC50 on IDH1 R132H, in the assay with U87MG cells and in the assay on HT1080 cells was below 500 nM throughout.
For `C=Cc1cc(Oc2cc(C#N)c(N3CCN(C(=O)CCOC)[C@H](C4CC4)C3)nc2C2CC2)ccn1` [Compound 693, (R)-6-cyclopropyl-2-(3-cyclopropyl-4-(3-methoxypropanoyl)piperazin-1-yl)-5-(2-vinylpyridin-4-yloxy)nicotinonitrile], the IC50 at IDH1 R132H, with U87MG cells and with HT1080 cells was below 500 nM each time.
On to `C=Cc1cc(-c2c(C3CC3)nc(N3CCN(C(=O)CCOC)[C@H](C)C3)c(C#N)c2C)ncn1` [Compound 627, (R)-6-cyclopropyl-2-(4-(3-methoxypropanoyl)-3-methylpiperazin-1-yl)-4-methyl-5-(6-vinylpyrimidin-4-yl)nicotinonitrile], for which the IC50 at IDH1 R132H, with U87MG cells and in the assay on HT1080 cells was below 500 nM in each case.
Regarding `C=Cc1cc(-c2cc(C#N)c(N3CCN(C(=O)CCO)[C@H](C)C3)nc2C2CC2)ncn1` [Compound 621, (R)-6-cyclopropyl-2-(4-(3-hydroxypropanoyl)-3-methylpiperazin-1-yl)-5-(6-vinylpyrimidin-4-yl)nicotinonitrile], the IC50 was below 500 nM at IDH1 R132H, 500 to 1000 nM in the assay on U87MG cells and below 500 nM in the assay with HT1080 cells.
With `C=Cc1cc(-c2cc(C#N)c(N3CCN(C(=O)CCOC)[C@H](C(C)C)C3)nc2C2CC2)c2ccncc2n1` [Compound 611, (R)-6-cyclopropyl-2-(3-isopropyl-4-(3-methoxypropanoyl)piperazin-1-yl)-5-(2-vinyl-1,7-naphthyridin-4-yl)nicotinonitrile], the IC50 on IDH1 R132H, with U87MG cells and in the assay on HT1080 cells was below 500 nM in each case.

The values are drawn from patent US9856279B2 (AGIOS PHARMACEUTICALS, INC, priority 2011, dated 2018).
